The record followed here is US12295919B2, “Methods of treatment and prevention using 4-deoxy-L-erythro-5-hexoseulose uronic acid” (MIE UNIVERSITY, priority 2022, dated 2025).

Structures are written as SMILES.

Data set [1] concerns blood-brain barrier in vitro reconstitution system model (RBT-24H). The experiment in a line: BBB permeability using rat-type BBB kit (RBT-24H). The class given is in vitro ADME, Wistar rat. On the procedure:
Next, DEH permeability was evaluated using a commercially available BBB kit (blood-brain barrier in vitro reconstitution system model (RBT-24H: PharmaCo-Cell Company Ltd.)). This kit uses endothelial cells, pericytes and astrocytes of Wistar rat origin. The above-mentioned SIM measurement of LC/MS was used in the detection and quantification of DEH. A 1000 μg/mL DEH solution was added to the blood vessel side, and after 30 minutes, culture medium on the brain parenchyma side was collected. Then, the DEH concentration in the collected culture medium was measured.
A summary of data, which examined permeability subgroups that migrate into the brain for various compounds, are shown in Table 3.

Data set [2] has as its system blood-brain barrier in vitro reconstitution system model (MBT-24H). The data set can be described thus: BBB permeability using cynomolgus monkey-type BBB kit (MBT-24H). The class given is in vitro ADME. Here is the method: The permeability of DEH was evaluated using a commercially available BBB kit (blood-brain barrier in vitro reconstitution system model (MBT-24H: PharmaCo-Cell Company, Ltd.)). The kit uses cynomolgus monkey-derived cells as endothelial cells. The permeability of DEH was evaluated using this model.
The reconstituted cynomolgus monkey BBB model has a structure closer to that of human BBB as compared to that of the kit in <Test 2>, so it was considered to be a better model for evaluating whether DEH permeates the human BBB.
After the test, the DEH concentration on the brain parenchyma side was obtained, and the DEH permeability was calculated.

In data set [3] the test system is C. elegans strain HA759. The experiment in a line: Inhibitory effect on neuronal death in PolyQ disease model. The class given is in vivo. The settings on record: 120 hours after start of culturing. An excerpt: The effect of DEH on neuronal death of the C. elegans strain HA759, which is a PolyQ disease model, was also investigated. HA759 strain (rtIs11 [osm-10p:: GFP+osm−10p: HtnQ150+dpy−20 (+)]) is a C. elegans strain which expresses Htn-Q150 (human huntingtin) and the fluorescent protein GFP downstream of the osm-10 gene when it receives a signal from ASH neurons. In accordance with the duration of the culture time, HA759 causes death of ASH neurons due to progressive neurodegeneration owing to accumulation of PolyQ.
Age-synchronized HA759 strain was cultured using mNGM medium. Control (DEH−), 25 mM DEH and 50 mM DEH were used as evaluation groups (samples). E. coli OP50-1 was used as nematode food.
Ten nematodes each were observed under a microscope immediately after the start of culture of the HA759 strain and after 24, 48, 72, and 120 hours to confirm whether nerve cells were alive or dead (n=30).
Each data is shown as mean±standard error. […] Thus, DEH inhibited, in a dose-dependent manner, PolyQ-induced neuronal death in the HA759 strain. Because DEH suppresses (reduces) PolyQ aggregation and neuronal cell death, DEH can treat and/or prevent symptoms of PolyQ disease, such as involuntary movement and dementia.

The subject of data set [4] is Caco-2 cell monolayer. The data set can be described thus: Membrane permeability using Caco-2 cell monolayer. The class given is in vitro ADME, human. Here is the method:
When Caco-2 cells (human colon cancer-derived cell line) are cultured in a monolayer on a porous membrane filter, they differentiate into intestinal epithelium-like cells. Owing to the differentiation, they express brush borders and tight junctions similar to columnar epithelial cells of the small intestine, as well as metabolic enzymes and transporters present in the human small intestine. Therefore, the Caco-2 cell monolayer is widely used as a model to predict absorption from the intestinal tract.
Using the Caco-2 cell monolayer, the membrane permeability of DEH was confirmed.
Next, using the model apparatuses shown in FIGS. 2A-2B, the electrical resistance value (transepithelial electrical resistance (TEER) value) using an electrical resistance system (voltohmmeter) sold under the trademark MILLICELL™ ESR-2 (FIG. 2A) and permeability using Lucifer Yellow (FIG. 2B) were measured to confirm that a single layer film was formed. The single layer films, in which the TEER value was more than 300 Ω·cm2 and the permeability of Lucifer yellow was 0.3% to 2%, were used in the test.
Permeability (absorption) of substances, which were added to the apical (AP: apical, luminal) side, to the basolateral (BL) side, or permeability (excretion) of substances, which were added to the BL side, to the AP side was evaluated.
An ER value of less than 2 means absorption from the intestinal tract, and an ER value of 2 or more means excretion from the intestinal tract.

Data set [5] has as its system human iPS cell-derived intestinal epithelial cells. The experiment in a line: Membrane permeability using human iPS cell-derived intestinal epithelial monolayer. The class given is in vitro ADME. Here is the method:
The permeability of DEH through membrane was confirmed using human iPS cells. […] Therefore, results closer to the human body can be obtained using iPS cell-derived intestinal epithelial cells as compared to those using the Caco-2 cell model test.
Using a CO2 incubator (37° C., 5% CO2), human iPS cell-derived intestinal epithelial cells were cultured for 13 to 20 days to prepare a monolayer.
The membrane permeability of the human iPS cell-derived intestinal epithelial monolayer membrane was evaluated by the method described above in <Test 1> using an electrical resistance system (voltohmmeter) sold under the trademark MILLICELL™ ESR-2. Monolayer films, in which the TEER value was more […], were used in the test.
Permeability (absorption) of substances, which were added to the AP side, to the BL side, or permeability (excretion) of substances, which were added to the BL side, to the AP side was evaluated. The above-mentioned SIM measurement of LC/MS was used in the detection and quantification of DEH.

Data set [6] relates to PC-12 cells. The data set can be described thus: Neurite outgrowth activity using PC-12 cells. The class given is cell-based, rat. On the procedure:
Next, the characteristics of DEH were investigated using PC-12 cells. PC-12 cells are cells that were isolated from rat adrenal medullary pheochromocytoma and established as a strain. Nerve growth factor (NGF) is not needed for survival of PC-12 cells, but proliferation is arrested, nerve fibers elongate, and sympathetic ganglion neuron-like properties develop by using NGF. Owing to these properties, PC-12 cells have been used as a model for neural differentiation.
PC-12 cells were cultured and divided into 8 subgroups: no addition (Control), DEH addition (10, 50, 100 μM), NGF addition, NGF addition+DEH addition (10, 50, 100 μM), and elongation of neurite formation was observed. ImageJ software was used to measure neurite length. FIGS. 5A-5C show photographs of cells observed under a microscope; in FIG. 6 the neurite length (μm) of each subgroup is shown. Each data is shown as mean±standard error of triplicate tests. Statistical analysis was performed using the t-test, and a significance level of less than 5% (p<0.05) was considered significant.
NGF addition+DEH addition (50, 60, 70, 80, 90, 100 μM) was divided into 6 subgroups, and the elongation and number of neurites were observed and are shown in FIGS. 7 and 8. Each data is shown as mean±standard error of triplicate tests.

The test system of data set [7] is DAF-16. The data set can be described thus: Expression and activation (nuclear localization) of DAF-16. As to conditions: 72 hours at 20° C.; for nuclear localization rate of DAF-16: TJ356 strain (Control 2.2%); for intermediate localization rate of DAF-16: TJ356 strain (Control 24.4%). The class given is in vivo, C. elegans. An excerpt: The FOXO gene daf-16 is one of the components of the insulin/IGF-1 signaling pathway that controls many biological processes such as lifespan, metabolism, and stress response. When DAF-16 is localized in the nucleus, it activates the transcription of numerous genes involved in the regulation of stress tolerance promotion and pathogen protection. Therefore, the involvement of DEH in the activation of daf-16 was examined using the C. elegans TJ356 strain.
The TJ356 strain (zls356 [daf-16p::daf-16a/b::GFP+rol-6 (su1006)]) is a nematode, in which a fluorescent protein GFP has been inserted into the daf-16 promoter, and nuclear translocation by daf-16 gene activation can be observed by fluorescence of the GFP.
Age-synchronized TJ356 strain was cultured using mNGM medium at 20° C. for 72 hours. As evaluation groups (samples), positive control (group heat-treated at 37° C. for 30 minutes after 72-hour culture), control (DEH−), 25 mM DEH and 50 mM DEH were used. E. coli OP50-1 was used as nematode food.
After culturing the TJ356 strain, 15 nematodes in each group were observed under a microscope to confirm the presence or absence of nuclear localization of the DAF-16 protein (GFP fluorescence) (n=60).
Each data is shown as mean±standard error. […] Thus, DEH increased the nuclear localization ratio of DAF-16 as compared to the Control.

[8] abbreviates: cynomolgus monkey BBB kit, mean ± s.e.
Where [9] appears, read: human iPS cell-derived intestinal epithelial monolayer, mean ± s.e.

As to `O=C[C@@H](O)[C@@H](O)CC(=O)C(=O)O` [DEH, 4-deoxy-L-erythro-5-hexoseulose uronic acid], the “Papp (DEH permeability, blood vessel side to brain parenchyma side)” value in data set [1] (1000 μg/mL DEH, 30 minutes) was 14.62±6.86 ×10^−6 cm/s. Besides, the Permeability category result is “good (10~20)” in data set [1] (Papp compared with Table 3) and “low (2~10)” in data set [2] (monkey BBB kit, Papp compared with Table 3). For the same molecule, the “Efflux ratio (ER) (B-A/A-B)” value is 0.766 in data set [2] (cynomolgus monkey BBB kit) and 0.907 in data set [5] (human iPS cell-derived intestinal epithelial monolayer). Further, the “Papp Blood side (A) to Brain side (B)” value in data set [2] (setting [8]) is 2.88 ± 0.24 ×10^−6 cm/s. Also, in data set [2] (setting [8]), the “Papp Brain side (B) to Blood side (A)” value is reported as 2.20 ± 0.55 ×10^−6 cm/s. Also, the “neuronal death suppressed (decreased) as compared to the Control” value in data set [3] (25 mM DEH) is listed as 20.3%; in data set [3] (50 mM DEH), 46.4%. Besides, the Absorption category result in data set [4] (Caco-2 Papp compared with Table 2) and in data set [5] (iPS-derived monolayer Papp compared with Table 2) was “moderate” each time. Further, the “Papp AP to BL” value in data set [4] (Caco-2 monolayer, absorption direction, mean ± s.e.) was 5.13 ± 0.22 ×10^−6 cm/s; in data set [5] (setting [9]), 8.78 ± 1.49 ×10^−6 cm/s. The “Papp BL to AP” value in data set [4] (Caco-2 monolayer, excretion direction, mean ± s.e.) is on record as 2.78 ± 0.12 ×10^−6 cm/s; in data set [5] (setting [9]), 7.97 ± 1.26 ×10^−6 cm/s. The “ER (B→A/A→B)” value in data set [4] (Caco-2 monolayer, ER less than 2 means absorption from the intestinal tract) was 0.542. In data set [6] (DEH 10, 50, 100 μM without NGF), the “neurite outgrowth, DEH alone” value is recorded as “did not induce neurite outgrowth”. The “optimum concentration (maximum neurite elongation and number)” value in data set [6] (NGF + DEH 50-100 μM) came to 70 µM. Moreover, in data set [6] (NGF addition + DEH addition, p<0.05 vs NGF), the “promotion of the function of NGF (neurite length)” value is “significantly (p<0.05) promote the function of NGF”. Besides, the “nuclear localization rate of DAF-16” value in data set [7] (25 mM DEH) is given as 40.0%; in data set [7] (50 mM DEH), 51.1%. In addition, the entries for the “intermediate localization rate of DAF-16” value in data set [7] (25 mM DEH) and in data set [7] (50 mM DEH) were 35.6% and 31.1%, respectively.
